Data as given in paper PMC5592152 (Bioorganic & medicinal chemistry letters, 2017).

Tests used:
Assay in all cases: electrophysiological experiments, voltage clamp of oocytes
Format in all cases: cell-based
α4β2 nAChR = α4β2 nAChR (Homo sapiens, UniProt P17787+P43681)
α7 nAChR = α7 nAChR (Homo sapiens, UniProt P36544)
α3β4 nAChR = α3β4 nAChR (Homo sapiens, UniProt P30926+P32297)
Sequence of α3β4 nAChR (P32297 32-505): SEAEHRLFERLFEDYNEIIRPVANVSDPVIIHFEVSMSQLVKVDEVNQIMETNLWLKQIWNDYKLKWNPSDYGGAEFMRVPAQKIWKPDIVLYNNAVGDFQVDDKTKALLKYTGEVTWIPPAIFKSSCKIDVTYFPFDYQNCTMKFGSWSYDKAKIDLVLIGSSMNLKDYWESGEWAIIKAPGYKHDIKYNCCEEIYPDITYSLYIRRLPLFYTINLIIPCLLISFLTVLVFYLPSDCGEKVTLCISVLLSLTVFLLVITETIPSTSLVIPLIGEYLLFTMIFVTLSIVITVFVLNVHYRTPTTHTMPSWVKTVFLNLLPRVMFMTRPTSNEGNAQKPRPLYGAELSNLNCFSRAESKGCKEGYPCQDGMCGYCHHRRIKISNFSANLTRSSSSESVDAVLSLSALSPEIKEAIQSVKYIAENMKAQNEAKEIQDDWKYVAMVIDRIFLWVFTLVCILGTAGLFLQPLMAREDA
Sequence of α3β4 nAChR (P30926 22-498): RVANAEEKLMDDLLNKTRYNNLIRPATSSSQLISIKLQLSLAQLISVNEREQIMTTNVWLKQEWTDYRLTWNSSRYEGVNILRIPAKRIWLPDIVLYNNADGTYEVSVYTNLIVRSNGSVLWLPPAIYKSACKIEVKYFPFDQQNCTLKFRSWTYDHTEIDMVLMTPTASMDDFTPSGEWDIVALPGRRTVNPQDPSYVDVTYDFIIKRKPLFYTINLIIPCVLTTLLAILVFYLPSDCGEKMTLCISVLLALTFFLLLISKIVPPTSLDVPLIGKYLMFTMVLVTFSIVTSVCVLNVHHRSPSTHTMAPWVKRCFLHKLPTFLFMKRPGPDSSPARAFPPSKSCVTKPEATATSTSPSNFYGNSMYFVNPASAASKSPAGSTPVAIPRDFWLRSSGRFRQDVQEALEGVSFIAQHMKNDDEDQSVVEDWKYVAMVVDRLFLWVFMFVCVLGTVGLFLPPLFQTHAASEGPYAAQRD

Sequence of α4β2 nAChR (P43681 29-627 limits assumed): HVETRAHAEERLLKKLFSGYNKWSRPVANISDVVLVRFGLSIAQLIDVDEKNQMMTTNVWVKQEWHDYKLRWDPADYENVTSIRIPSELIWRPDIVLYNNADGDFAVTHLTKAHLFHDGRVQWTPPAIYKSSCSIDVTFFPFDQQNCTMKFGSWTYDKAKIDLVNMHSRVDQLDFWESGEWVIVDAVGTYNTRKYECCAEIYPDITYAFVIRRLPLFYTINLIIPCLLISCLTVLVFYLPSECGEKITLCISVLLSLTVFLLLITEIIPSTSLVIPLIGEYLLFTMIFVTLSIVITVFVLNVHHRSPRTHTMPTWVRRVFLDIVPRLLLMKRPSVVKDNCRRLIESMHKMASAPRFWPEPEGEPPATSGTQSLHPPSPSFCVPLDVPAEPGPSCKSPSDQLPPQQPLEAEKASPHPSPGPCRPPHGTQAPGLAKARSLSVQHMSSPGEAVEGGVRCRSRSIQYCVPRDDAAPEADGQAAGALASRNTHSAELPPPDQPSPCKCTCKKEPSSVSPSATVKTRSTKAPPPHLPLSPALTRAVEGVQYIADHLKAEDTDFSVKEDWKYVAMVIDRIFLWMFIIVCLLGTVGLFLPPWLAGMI
Sequence of α4β2 nAChR (P17787 26-502): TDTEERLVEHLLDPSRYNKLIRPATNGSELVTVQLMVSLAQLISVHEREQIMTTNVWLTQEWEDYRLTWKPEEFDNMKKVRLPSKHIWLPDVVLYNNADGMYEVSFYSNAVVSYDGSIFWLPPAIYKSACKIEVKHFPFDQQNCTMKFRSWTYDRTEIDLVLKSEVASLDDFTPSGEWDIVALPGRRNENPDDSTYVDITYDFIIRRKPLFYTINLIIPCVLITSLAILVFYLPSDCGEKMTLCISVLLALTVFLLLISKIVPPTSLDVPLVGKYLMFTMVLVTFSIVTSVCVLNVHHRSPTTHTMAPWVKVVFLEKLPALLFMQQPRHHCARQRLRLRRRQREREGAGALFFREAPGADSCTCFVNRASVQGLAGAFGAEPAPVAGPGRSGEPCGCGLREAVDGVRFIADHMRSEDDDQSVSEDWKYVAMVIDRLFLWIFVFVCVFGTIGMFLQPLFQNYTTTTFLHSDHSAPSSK
Sequence of α7 nAChR (P36544 23-502): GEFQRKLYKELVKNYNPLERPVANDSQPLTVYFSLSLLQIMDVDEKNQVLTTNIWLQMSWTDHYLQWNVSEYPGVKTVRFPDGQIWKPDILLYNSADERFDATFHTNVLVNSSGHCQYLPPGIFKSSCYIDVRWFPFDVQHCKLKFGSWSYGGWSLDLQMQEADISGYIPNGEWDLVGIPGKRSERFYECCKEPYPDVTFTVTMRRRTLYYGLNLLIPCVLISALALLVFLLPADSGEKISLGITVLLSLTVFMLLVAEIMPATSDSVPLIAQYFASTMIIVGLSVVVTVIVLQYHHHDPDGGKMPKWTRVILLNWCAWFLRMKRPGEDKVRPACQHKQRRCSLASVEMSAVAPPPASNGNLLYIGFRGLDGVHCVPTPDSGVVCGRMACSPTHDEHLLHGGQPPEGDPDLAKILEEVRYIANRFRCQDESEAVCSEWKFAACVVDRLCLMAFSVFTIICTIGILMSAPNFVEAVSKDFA

agonist activity (α4β2 nAChR; 30 μM for α4β2, normalized to control ACh response): no significant agonist activity
antagonist activity (α4β2 nAChR; compound at 100 μM, with ACh 30 μM): no significant antagonist activity
agonist activity (α7 nAChR; 60 μM for α7, normalized to control ACh response): no significant agonist activity
antagonist activity (α7 nAChR; compound at 100 μM, with ACh 60 μM): no significant antagonist activity
agonist activity (α3β4 nAChR; 100 μM for α3β4, normalized to control ACh response): no significant agonist activity
antagonist activity (α3β4 nAChR; compound at 100 μM, with ACh 100 μM): significantly antagonized
SMILES: CN1CCC=C(c2cnc(F)c(-c3ccccc3)c2)C1 [Compound 3a]
